What was measured:
TK^+ HSV 1 = assay: In vitro antiviral activity (CPE) against TK^+ HSV-1 (BWVL#10186) in Vero cells; type: cell-based, Herpes type 1 virus (HSV-1), human clinical isolate; settings: for EC50: Human alphaherpesvirus 1, TK^+ HSV 1, Vero cells, CPE, about 72 hours, read-out: ED50 (the source's name); for Activity compared with acyclovir (in words): in vitro, TK^+ HSV-1
Description: (§1) The following test were carried out essentially as described by Sidwell and Huffman (Sidwell, et al., App. Microbiol., 22:797-801 (1971)), and was used in the reports on the in vitro antiviral activity of ribavirin (Sidwell, et al. Science, 177:705-706 (1972); Huffman, et al., Antimicrob. Ag. Chemother., 3:235-241 (1973)).
(§2) Herpes type 1 virus (HSV-1), BWVL#10186, is a thymidine kinase positive (TK^+) human clinical isolate provided by Dr. M. Nixon Ellis, Burroughs Wellcome Co. (Research Triangle Park, N.C.). The BWVL#10168 strain of HSV-1 is a TK- patient isolate (resistant partner to 10186) that was also provided by Dr. Ellis. Both strains were prepared in Vero cells, ampuled, and frozen at -80° C. Antiviral testing was performed in Vero cells.
(§3) Vero (continuously passaged African green monkey kidney) was obtained from the American Type Culture Collection (ATCC) (Rockville, Md.). Growth medium was Medium 199, 5% FBS and 0.1% NaHCO3. Test medium was Eagle's minimum essential medium with non-essential amino acids (MEM), with 2% FBS, 0.18% NaHCO3 and 50 μg gentamicin/ml. The growth medium contained no antibiotics.
(§4) Compounds were weighed and a sufficient amount added to DMSO (American Type Culture Collection, Rockville, Md.) to prepare a solution at 20 mg/ml.
(§5) Cells were seeded to 96-well flat-bottomed tissue culture plates (Corning Glass Works, Corning, N.Y.), 0.2 ml/well, at the proper cell concentration, and incubated overnight at 37° C. in order to establish cell monolayers. The growth medium was decanted and the various dilutions of test compound were added to each well (4 wells/dilution, 0.1 ml/well). Compound diluent medium was added to cell and virus control wells (0.1 ml/well). Virus, diluted in test medium, was added to compound test wells (3 wells/dilution of compound) and to virus control wells at 0.1 ml/well. Virus was added approximately 5 minutes after compound. Test medium without virus was added to all toxicity control wells (1 well/dilution of each test compound) and to cell control wells at 0.1 ml/well. The plates were sealed with plastic wrap (SARAN™) and incubated at 37° C. in a humidified incubator with 5% CO2, 95% air atmosphere until virus control had adequate cytopathic effect (CPE) readings. This was usually achieved after 72 hours. Cells were then examined microscopically for CPE, this being scored from 0 (normal cells) to 4 (maximal, 100%, CPE). The cells in the toxicity control wells were observed microscopically for morphologic changes attributed to cytotoxicity. This cytotoxicity was graded as: T (assigned 100% toxicity), PVH (assigned 80% cytotoxicity), PH (assigned 60% cytotoxicity), P (assigned 40% cytotoxicity), PSI (assigned 20% cytotoxicity), and 0 (normal cells). The 50% effective dose (ED50) and 50% cytotoxic dose (CD50) were calculated by regression analysis of the virus CPE data and the toxicity control data, respectively.
(§6) A known active substance, acyclovir, was run in the same manner as above for each batch of compounds tested.

TK^- HSV 1 = assay: In vitro antiviral activity (CPE) against TK^- acyclovir resistant HSV-1 (BWVL#10168) in Vero cells; type: cell-based, Herpes type 1 virus (HSV-1), patient isolate; settings: for EC50: Human alphaherpesvirus 1, Vero, 72 h, read-out: ED50; for Activity relative to acyclovir (fold more active): in vitro, acyclovir resistant (TK^-) HSV-1
Description: as §1, §2, §3, §4, §5, §6

in vitro = type: cell-based; settings: african green monkey, vero cells
Description: as §3, §4, §5

herpes simplex labialis = settings: cited from earlier work
HSV-1 = assay: Dermal HSV-1 infection in guinea pigs, topical treatment; type: in vivo, Female Hartley outbred guinea pigs; settings: for Comparison with U.S. ZOVIRAX in all three efficacy parameters: Mann-Whitney test, p=0.0008, 0.0008, 0.001; for Reduction in lesion number (in words): guinea pigs with dermal HSV-1 lesions, compared to vehicle; for Lesion Number, % Diff vs placebo / Lesion virus titer, % Diff vs placebo / Total Lesion Area, % Diff vs placebo: positive value = reduction vs vehicle, p=0.012; for Lesion virus titer, mean: skin taken Day 4, plaque formation in VERO cells; for Lesion Number, mean: prodrug cream (1.2% Prodrug 1 or 1.87% Prodrug 2) 2x/day on Days 1, 2 and 3
Description: The formulation for Prodrugs 1 and 2 contained 5% EL-620 EMULPHOR (polyoxyethylated castor oil) (Rhone Poluenc), 5% CARBOPOL (Carboxypolymethylene, sodium salt) (B.F. Goodrich), 10% ethanol and 1.2% by weight Prodrug 1 (or 1.87% by weight Prodrug 2). The balance of the formulation consisted of water.
EL-620 EMULPHOR and water were mixed and ultrasonicated to give a clear emulsion, to which the ethanol was added. The prodrug was then added, and the mixture was ultrasonicated to give an opalescent emulsion. The sodium carbopol was then added to the emulsion and mixed until to homogeneity.
The placebo was prepared identically to the pharmaceutical compositions except that the prodrugs were omitted.
Female Hartley outbred guinea pigs, 400 to 450 grams, were obtained from Charles River Breeding Labs, Wilmington, Mass. Animals were anesthetized with 25 mg/kg ketamine and 5 mg/kg xylazine SQ. Hair on the dorsum from the shoulders to the rump was removed with electric clippers followed by two 5-10 minute applications of a chemical depilatory. A grid of four areas was demarcated with a pen on both sides of the spine at levels corresponding to mid back and rump.
Undiluted HSV-1 virus stock (0.035 ml) was applied to each different area and introduced through the skin at well-spaced sites at ten activations of a six-pronged spring-loaded vaccination instrument (Sterneedle, Pan Ray Division, Ormont Drug, Englewood, N.J.). The day of inoculation is Day 0. Approximately 250 mg of drug or placebo was applied to the areas according to the dosing regimen on Days 1, 2 and 3. Eight guinea pigs were used during the experiments allowing eight comparisons between each drug and its placebo. 5% ZOVIRAX ointment U.S.A. (Acyclovir) applied 4×/day was used as a control.
On Day 4 regrown hair on the dorsum of the guinea pigs was removed with one 3-4 minute application of a chemical depilatory. HSV lesions were counted and Polaroid pictures of the animals' backs were taken. The animals were sacrificed using CO2 gas and the full thickness skin of the back was removed by dissection. The square of the skin from each of the four treatment areas was placed into 15 mls of tissue culture medium with 2% FBS in an ice bath. The samples were then homogenized in a stomacher Lab Blender 80 (Tekmar Co.). Debris was pelleted by centrifugation and the supernatants collected and frozen at -70 C. until assay for infectivity by plaque formation in VERO cells.
The mean and standard deviation for number of lesions, total lesion area and lesion virus titer were computed for each treatment pair. Paired data (drug/vehicle) were evaluated by the Wilcoxon signed-rank test using percent differences between log10 derivatives of mean lesions severity at drug-treated sites compared to the vehicle-treated sites.

pig liver esterase = assay: Incubation with pig liver esterase in phosphate buffered D2O, NMR; type: in vitro ADME
Herpes Simplex Virus-1 = assay: Healing of vaginal lesions in mice caused by Herpes Simplex Virus-1; type: in vivo; settings: topical application
[1] = prodrug cream 2x/day on Days 1, 2 and 3, assessed Day 4, n=8
[2] = prodrug cream 2x/day on Days 1, 2 and 3, n=8
[3] = prodrug cream 2x/day on Days 1, 2 and 3

| SMILES | EC50 (TK^+ HSV 1) [µM] | EC50 (TK^- HSV 1) [µM] | CC50 (in vitro) [µg/mL] | Effectiveness of oral administration in treatment of cold sores (herpes simplex labialis; oral) | Response of cold sores to topical treatment (herpes simplex labialis; topical) | Comparison with U.S. ZOVIRAX in all three efficacy parameters (HSV-1) | Reduction in lesion number (in words) (HSV-1) | Lesion Number, median (HSV-1; [1]) | Total Lesion Area, mean (HSV-1; [1]) [mm2] | Total Lesion Area, median (HSV-1; [1]) [mm2] | Lesion virus titer, median (HSV-1; [2]) | Lesion Number, % Diff vs placebo (HSV-1; [3]) [%] | Lesion virus titer, % Diff vs placebo (HSV-1; [3]) [%] | Total Lesion Area, % Diff vs placebo (HSV-1; [3]) [%] | Lesion virus titer, mean (HSV-1; [2]) | Lesion Number, mean (HSV-1; assessed Day 4, n=8) | Activity compared with acyclovir (in words) (TK^+ HSV 1) | Activity relative to acyclovir (fold more active) (TK^- HSV 1) | Degradation by pig liver esterase (pig liver esterase) | Healing of vaginal lesions (Herpes Simplex Virus-1) |
| --- | --- | --- | --- | --- | --- | --- | --- | --- | --- | --- | --- | --- | --- | --- | --- | --- | --- | --- | --- | --- |
| Nc1nc2c(ncn2COCCO)c(=O)[nH]1 [Acyclovir, acyclovir, reference compound] | 1.4 | 35 | > 100 | only partially effective | do not respond to the topical treatment |  |  |  |  |  |  |  |  |  |  |  |  |  |  |  |
| COC(=O)CC(OP(=O)(OCCOCn1cnc2c(=O)[nH]c(N)nc21)OC(CC(=O)OC)c1ccc(OC(C)=O)cc1)c1ccc(OC(C)=O)cc1 (stereo not drawn) [Prodrug 1] | 4.6 | 17 | > 100 |  |  | worked significantly better than U.S. ZOVIRAX in all three of the efficacy parameters measured | dramatic reduction in lesion number | 32.0 | 106 | 107 | 3.17 log (pfu/ml) | 45 | 96 | 59 | 3.07 log (pfu/ml) | 32 | same order of magnitude as acyclovir | about 2 × | degraded to acyclovir monophosphate and p-hydroxycinnamic |  |
| COC(=O)CC(OP(=O)(OCCOCn1cnc2c(=O)[nH]c(N)nc21)OC(CC(=O)OC)c1ccc(OC(=O)C(C)(C)C)cc1)c1ccc(OC(=O)C(C)(C)C)cc1 (stereo not drawn) [Prodrug 2] | 6.3 | 7.5 | > 100 |  |  | worked significantly better than U.S. ZOVIRAX in all three of the efficacy parameters measured | dramatic reduction in lesion number | 36.0 |  | 109 | 3.12 log (pfu/ml) | 35 | 97 | 57 | 2.87 log (pfu/ml) | 37 | same order of magnitude as acyclovir | about 5 × |  | effective in promoting the healing of vaginal lesions in mice |
| COC(=O)CC(O[PH](=O)OCCOCn1cnc2c(=O)[nH]c(N)nc21)c1ccc(OC(=O)C(C)(C)C)cc1 (stereo not drawn) [Prodrug 3] | 5.5 | 37 | > 100 |  |  |  |  |  |  |  |  |  |  |  |  |  | same order of magnitude as acyclovir |  |  |  |
